Experiment: gradient 5% acetonitrile 3 min, to 50% in 2 min, to 85% in 15 min, held 3 min, 100 µL/min
Details: column: Zorbax Extend-C18 2.1 x 50 mm; eluents: water / acetonitrile, 0.1% formic acid
In short: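 Pure standards were analyzed in mixtures of ~100 molecules using HPLC coupled to a quadrupole time-of-flight mass spectrometer, in both positive and negative ionization mode. Separation used a Zorbax Extend-C18 column (2.1 × 50 mm, 1.8 μm) at 100 μL/min, with water and acetonitrile each containing 0.1% formic acid. Dead and dwell volumes were 40 μL and 900 μL, and data were collected over 3 months. Retention time was read from computationally picked adduct peaks, each inspected manually.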

Row | SMILES | RP-LC retention time
1 | CCC(=O)Nc1nc(-c2ccc3c(c2)N(C)C(=O)C(C)O3)cs1 (stereo not drawn) | 801 s
2 | Cc1ccc(S(=O)(=O)c2cnc(N3CCC4(CC3)OCCO4)nc2N)cc1 | 858 s
3 | O=c1c2oc3ccccc3c2ncn1Cc1nc(-c2cccc(C(F)(F)F)c2)no1 | 1040 s
4 | O=C(CN1CCC(c2nc(-c3ccc(F)cc3)no2)CC1)NC1CCCCC1 | 715 s
5 | CCCCc1ccc(Nc2ncccc2S(N)(=O)=O)cc1 | 1060 s
6 | COc1ccc(-c2noc(CN3N=NC4C(=O)N(c5cccc(F)c5)C(=O)C43)n2)cc1OC (stereo not drawn) | 1260 s
7 | O=C(C1CCN(c2cnc(N3CCOCC3)nc2)CC1)N1CCCCC1 | 646 s
8 | Cc1ccccc1CNC(=O)CCc1nnc2c3cc(-c4ccc(F)cc4)nn3ccn12 | 811 s
9 | O=S(=O)(c1ccccc1Cl)N1CCN(c2ccc3nnc(-c4ccco4)n3n2)CC1 | 726 s
10 | Cc1cc(N(C)C)nc(N2CCN(S(=O)(=O)c3ccc(-c4ccccc4)cc3)CC2)n1 | 814 s
11 | Cc1nnc(-c2ccc3ccn(CC(=O)NCc4ccccc4Cl)c3c2)o1 | 779 s
12 | NS(=O)(=O)c1ccc(NS(=O)(=O)c2cc(-c3ccno3)cs2)cc1 | 710 s
13 | COc1cccc(NC(=O)Cn2nc3c(Oc4ccc(F)cc4)nccn3c2=O)c1 | 812 s
14 | O=C(Cn1ccn2nc(-c3ccc(F)cc3)c(CO)c2c1=O)Nc1cccc(Br)c1 | 894 s
15 | O=C(NC1CCCC1)c1ccc(CN2CCN(Cc3ccccc3)C(=O)C2=O)cc1 | 734 s
16 | COc1cccc(NC(=O)Cc2csc3nc(-c4ccc(OC)c(OC)c4)cn23)c1 | 780 s
17 | CCCNC(=O)C1CCN(c2ccc(SCC(=O)Nc3ccc(C)c(C)c3)nn2)CC1 | 685 s
18 | CCOC(=O)c1noc2nc(C)nc(NCC3CCN(Cc4cccc(C)c4)CC3)c12 | 609 s
19 | CCN(C(=O)C1CCC(C)CC1)c1nc(-c2ccc(C)cc2)cs1 (stereo not drawn) | 767 s
20 | NC(C(=O)N[C@@H]1C(=O)N2C(C(=O)O)=C(Cl)CS[C@H]12)c1ccccc1 (stereo partly drawn) | 563 s
21 | O=C(Nc1ccc(F)cc1F)C1CCCN(C(=O)Cc2cccc3ccccc23)C1 (stereo not drawn) | 958 s
22 | Cc1ccc(S(=O)(=O)NC2CCN(C(=O)c3ccnn3C)CC2)cc1 | 688 s

Row | SMILES | RP-LC retention time
23 | Cc1ccsc1C(=O)N1CCCn2cc(-c3ccccc3)nc21 | 686 s
24 | Cc1ccc2c(c1)N(Cc1ccc(Cl)cc1)N=C(C(=O)N1CCOCC1)S2(=O)=O | 896 s
25 | Cc1ccc(C)c(Nc2c(-c3nc(C)no3)cnc3nc(C)ccc23)c1 | 813 s
26 | Nc1nc(F)nc2c1ncn2[C@@H]1O[C@H](CO)[C@@H](O)[C@@H]1O | 573 s
27 | COc1ccc(-c2nnc(-c3ccc(C)c(S(=O)(=O)NC4CCCC4)c3)o2)cc1OC | 1010 s
28 | COc1cc(NC(=O)N2CCN(c3cc(C)nc(N4CCOCC4)n3)CC2)cc(OC)c1 | 627 s
29 | COC(=O)c1ccc(NC(=O)N(C)c2ccccc2)cc1 | 771 s
30 | Cc1cc(N2CCOCC2)nc(N2CCN(C(=O)C3CCCCC3)CC2)n1 | 625 s
31 | CCNC(=O)C1CCCN(c2nc3ncn(CC(=O)Nc4cc(C)ccc4C)c(=O)c3s2)C1 (stereo not drawn) | 673 s
32 | CCn1cc(C(=O)NC2CCN(c3ccc(=O)n(CCOc4ccccc4)n3)C2)cn1 (stereo not drawn) | 692 s
33 | Cc1c(Cl)cccc1NC(=O)N(C)CC1CCOCC1 | 750 s
34 | O=C1CSC(c2cccs2)N1c1nncs1 (stereo not drawn) | 804 s
35 | CC(=O)N(Cc1nn(C)c2c1CN(S(=O)(=O)c1cc(C)cc(C)c1)CC2)c1ccccc1 | 856 s
36 | Cc1[nH]nc(-c2c(C)sc(C)c2S(=O)(=O)N2CCc3ccccc3C2)c1C | 975 s
37 | O=C(NCCc1ccco1)C1CCCN(c2nc3ccccc3n(Cc3ccccc3)c2=O)C1 (stereo not drawn) | 1090 s
38 | CCSc1nnc(-c2nn(C)c3c2CN(C(=O)c2c(F)cccc2Cl)CC3)n1C | 768 s
39 | CC(C)c1ccc(S(=O)(=O)N2CCCC2c2nc(-c3ccc(Cl)cc3)no2)cc1 (stereo not drawn) | 1360 s
40 | CSc1ccc(CNC(=O)c2cn3cc(C)ccc3n2)cc1 | 708 s
41 | Cc1ccccc1Cn1c(CN2CCC(C(=O)NCCCN3CCCC3)CC2)cc2ccccc21 | 646 s
42 | Cc1ccc(C)c(NC(=O)N2c3ccccc3CC2c2nc(C3CC3)no2)c1 (stereo not drawn) | 1060 s
43 | CCCS(=O)(=O)c1nc2ccc(NS(=O)(=O)c3ccc(F)c(C)c3)cc2s1 | 983 s

From the METLIN SMRT retention time set (Domingo-Almenara et al. 2019)
